According to ChEMBL document CHEMBL5252585, “Structure optimization and discovery of novel compound for the treatment of insertion mutations within exon 20 of EGFR and HER2” (Bioorg Med Chem, 2023):
Activity calls are given as the source filed them. The rule behind the calls is not given here.

Columns and labels:
[1] = biological target: Tyrosine-protein kinase Blk (Homo sapiens) (UniProt P51451); test: Inhibition of BLK (unknown origin) at 500 nM relative to control
[2] = biological target: Receptor tyrosine-protein kinase erbB-2 (Homo sapiens, UniProt P04626); conditions: dose 500.0 nM
Receptor tyrosine-protein kinase erbB-2, sequence (P04626 whole entry): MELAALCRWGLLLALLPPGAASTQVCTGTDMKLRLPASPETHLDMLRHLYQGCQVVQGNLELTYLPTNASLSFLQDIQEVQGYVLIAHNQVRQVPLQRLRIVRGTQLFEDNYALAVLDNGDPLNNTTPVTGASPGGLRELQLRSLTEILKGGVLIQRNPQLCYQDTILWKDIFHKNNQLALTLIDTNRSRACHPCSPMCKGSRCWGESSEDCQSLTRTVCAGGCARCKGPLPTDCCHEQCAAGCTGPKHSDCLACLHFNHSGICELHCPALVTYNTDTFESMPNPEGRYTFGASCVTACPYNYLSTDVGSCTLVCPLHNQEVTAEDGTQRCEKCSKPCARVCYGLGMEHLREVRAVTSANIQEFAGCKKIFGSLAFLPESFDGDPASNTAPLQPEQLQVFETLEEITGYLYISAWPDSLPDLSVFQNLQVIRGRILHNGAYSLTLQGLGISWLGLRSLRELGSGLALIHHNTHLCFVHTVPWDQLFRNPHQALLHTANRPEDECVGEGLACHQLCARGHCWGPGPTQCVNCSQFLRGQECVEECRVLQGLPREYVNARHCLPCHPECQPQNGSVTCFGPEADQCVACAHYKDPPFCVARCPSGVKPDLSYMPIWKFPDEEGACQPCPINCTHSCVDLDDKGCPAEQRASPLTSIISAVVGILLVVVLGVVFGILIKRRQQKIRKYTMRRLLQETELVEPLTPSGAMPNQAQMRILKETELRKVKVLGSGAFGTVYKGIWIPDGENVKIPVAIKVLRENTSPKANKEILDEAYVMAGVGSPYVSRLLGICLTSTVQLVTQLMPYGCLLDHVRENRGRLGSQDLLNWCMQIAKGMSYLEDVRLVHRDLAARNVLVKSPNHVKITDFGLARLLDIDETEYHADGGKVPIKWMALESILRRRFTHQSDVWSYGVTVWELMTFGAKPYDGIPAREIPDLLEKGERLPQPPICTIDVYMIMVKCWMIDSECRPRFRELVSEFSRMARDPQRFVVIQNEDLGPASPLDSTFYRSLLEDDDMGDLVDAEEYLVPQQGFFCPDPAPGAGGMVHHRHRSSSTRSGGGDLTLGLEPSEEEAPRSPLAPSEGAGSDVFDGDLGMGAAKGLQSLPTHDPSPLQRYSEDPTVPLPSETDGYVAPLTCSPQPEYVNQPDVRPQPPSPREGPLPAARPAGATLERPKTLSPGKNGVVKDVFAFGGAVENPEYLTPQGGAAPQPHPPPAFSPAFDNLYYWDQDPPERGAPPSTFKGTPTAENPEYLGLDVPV
Description: Inhibition of HER2 (unknown origin) at 500 nM relative to control

[3] = Mean residence time in Sprague-Dawley rat at 10 mg/kg, po measured upto 8 hrs by LC-MS/MS analysis; format: ADME, organism-based; conditions: in vivo
[4] = system: BaF3; test: Inhibition of HER2-A775-G776 ins YVMA mutant in mouse BaF3 cells assessed as reduction in HER2 phosphorylation at less than 1 nM incubated for 24 hrs by Western blot analysis; format: cell-based
[5] = system: BaF3; test: Antiproliferative activity against mouse BAF3 cells harboring HER2-P780-Y781 ins GSP mutant after 72 hrs by celltiter-Glo luminescence assay; format: functional, cell-based; conditions: BaF3, 72 h
[6] = system: BaF3; test: Antitumor activity against mouse BaF3 cells implanted in BALB/c mouse harboring HER2-A775-G776 ins YVMA mutant assessed as tumor growth inhibition at 10 mg/kg, po administered once daily for 13 to 14 days; format: functional; conditions: time 13-14 day, read-out: TGI
[7] = biological target: T1, Tyrosine-protein kinase TXK (Homo sapiens) (UniProt P42681); test: Inhibition of TXK (unknown origin) at 500 nM relative to control
T1 sequence (whole entry): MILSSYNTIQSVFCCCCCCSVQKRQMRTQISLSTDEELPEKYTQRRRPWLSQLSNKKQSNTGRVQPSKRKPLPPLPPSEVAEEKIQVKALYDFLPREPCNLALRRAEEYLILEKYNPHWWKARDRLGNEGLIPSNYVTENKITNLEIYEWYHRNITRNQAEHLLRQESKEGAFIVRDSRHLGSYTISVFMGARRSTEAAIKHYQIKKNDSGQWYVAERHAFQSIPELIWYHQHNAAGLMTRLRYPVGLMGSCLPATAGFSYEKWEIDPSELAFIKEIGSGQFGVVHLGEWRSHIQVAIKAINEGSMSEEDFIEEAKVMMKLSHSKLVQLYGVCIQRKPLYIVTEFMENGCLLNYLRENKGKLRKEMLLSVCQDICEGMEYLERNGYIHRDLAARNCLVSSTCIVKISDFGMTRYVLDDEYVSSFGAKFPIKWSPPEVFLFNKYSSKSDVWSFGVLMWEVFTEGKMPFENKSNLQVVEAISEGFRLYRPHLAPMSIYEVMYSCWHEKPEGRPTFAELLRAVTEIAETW

[8] = system: BaF3; test: Antitumor activity against mouse BaF3 cells implanted in BALB/c mouse harboring EGFR D770-N771 ins NPG mutant assessed as tumor growth inhibition at 20 mg/kg, po administered once daily for 13 to 14 days; format: functional; conditions: time 13-14 day, read-out: TGI
[9] = biological target: Tyrosine-protein kinase BTK (Homo sapiens) (UniProt Q06187); test: Inhibition of BTK (unknown origin) at 500 nM relative to control
Tyrosine-protein kinase BTK (Homo sapiens), sequence (Q06187 whole entry): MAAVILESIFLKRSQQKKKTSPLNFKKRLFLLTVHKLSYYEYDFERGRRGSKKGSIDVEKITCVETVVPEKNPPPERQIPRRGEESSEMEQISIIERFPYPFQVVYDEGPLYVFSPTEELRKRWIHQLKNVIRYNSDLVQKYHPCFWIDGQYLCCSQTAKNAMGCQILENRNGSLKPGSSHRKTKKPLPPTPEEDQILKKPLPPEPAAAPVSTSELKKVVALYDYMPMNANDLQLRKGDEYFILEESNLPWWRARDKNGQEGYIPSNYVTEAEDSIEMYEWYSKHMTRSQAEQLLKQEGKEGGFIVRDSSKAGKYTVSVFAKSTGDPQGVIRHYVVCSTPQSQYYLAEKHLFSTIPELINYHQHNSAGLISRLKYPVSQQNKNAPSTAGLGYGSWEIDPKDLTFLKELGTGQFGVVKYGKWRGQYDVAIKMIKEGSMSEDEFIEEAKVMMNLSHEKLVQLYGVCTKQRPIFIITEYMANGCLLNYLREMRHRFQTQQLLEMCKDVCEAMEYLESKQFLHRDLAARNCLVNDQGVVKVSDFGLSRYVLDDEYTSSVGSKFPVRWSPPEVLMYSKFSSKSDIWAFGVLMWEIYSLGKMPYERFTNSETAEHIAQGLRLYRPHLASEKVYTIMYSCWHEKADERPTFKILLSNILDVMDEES

[10] = system: BaF3; test: Antiproliferative activity against mouse BAF3 cells harboring FL-EGFR A763-Y764 ins FQEA mutant after 72 hrs by celltiter-Glo luminescence assay; format: functional, cell-based; conditions: BaF3, 72 h
[11] = Clearance in Sprague-Dawley rat at 10 mg/kg, po measured upto 8 hrs by LC-MS/MS analysis; format: ADME, organism-based; conditions: in vivo
[12] = Tmax in Sprague-Dawley rat at 10 mg/kg, po measured upto 8 hrs by LC-MS/MS analysis; format: ADME, organism-based; conditions: in vivo
[13] = Toxicity in BALB/c mouse harboring HER2-A775-G776 ins YVMA mutant implanted with mouse BaF3 cells assessed as change in body weight at 10 to 20 mg/kg, po administered once daily for 13 to 14 days; format: organism-based; conditions: in vivo, dose lower 10 mg/kg, time lower 13 day, dose upper 20 mg/kg, time upper 14 day
[14] = biological target: Receptor tyrosine-protein kinase erbB-4 (Homo sapiens) (UniProt Q15303); conditions: dose 500.0 nM
Receptor tyrosine-protein kinase erbB-4 (Homo sapiens), sequence (Q15303 whole entry): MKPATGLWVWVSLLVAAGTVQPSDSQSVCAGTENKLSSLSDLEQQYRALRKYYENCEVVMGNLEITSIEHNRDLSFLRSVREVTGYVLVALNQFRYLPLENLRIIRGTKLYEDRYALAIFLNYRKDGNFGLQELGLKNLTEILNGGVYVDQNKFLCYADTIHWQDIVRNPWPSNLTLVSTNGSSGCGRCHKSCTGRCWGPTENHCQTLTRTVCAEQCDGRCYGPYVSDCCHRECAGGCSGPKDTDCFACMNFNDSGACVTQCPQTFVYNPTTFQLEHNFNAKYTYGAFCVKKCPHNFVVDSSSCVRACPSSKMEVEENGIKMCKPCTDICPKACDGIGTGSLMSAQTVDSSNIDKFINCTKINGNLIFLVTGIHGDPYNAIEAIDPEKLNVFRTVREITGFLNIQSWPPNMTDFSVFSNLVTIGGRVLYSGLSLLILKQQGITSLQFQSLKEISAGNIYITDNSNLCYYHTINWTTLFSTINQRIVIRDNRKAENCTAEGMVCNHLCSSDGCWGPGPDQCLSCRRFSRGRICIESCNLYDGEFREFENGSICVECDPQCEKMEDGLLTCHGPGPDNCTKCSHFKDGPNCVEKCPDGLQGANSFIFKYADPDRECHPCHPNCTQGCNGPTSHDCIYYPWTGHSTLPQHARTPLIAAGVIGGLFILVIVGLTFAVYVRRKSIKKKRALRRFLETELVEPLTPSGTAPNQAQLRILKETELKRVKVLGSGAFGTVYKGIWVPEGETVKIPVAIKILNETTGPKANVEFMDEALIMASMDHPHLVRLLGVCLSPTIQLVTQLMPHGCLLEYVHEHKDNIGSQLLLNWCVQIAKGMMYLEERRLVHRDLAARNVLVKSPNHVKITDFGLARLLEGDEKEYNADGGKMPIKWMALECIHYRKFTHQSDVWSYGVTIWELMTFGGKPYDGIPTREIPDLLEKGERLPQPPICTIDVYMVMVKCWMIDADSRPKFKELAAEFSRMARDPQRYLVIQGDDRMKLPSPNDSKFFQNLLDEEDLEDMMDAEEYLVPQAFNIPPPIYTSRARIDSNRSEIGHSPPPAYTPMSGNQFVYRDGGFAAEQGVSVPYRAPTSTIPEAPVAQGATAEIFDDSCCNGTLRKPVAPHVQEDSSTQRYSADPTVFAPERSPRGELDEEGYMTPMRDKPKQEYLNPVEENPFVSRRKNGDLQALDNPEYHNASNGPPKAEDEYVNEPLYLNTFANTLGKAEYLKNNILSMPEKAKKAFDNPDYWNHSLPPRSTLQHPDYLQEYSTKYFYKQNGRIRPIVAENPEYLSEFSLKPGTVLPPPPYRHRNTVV
Description: Inhibition of HER4 (unknown origin) at 500 nM relative to control

[15] = system: BaF3; test: In vivo inhibition of HER2-A775-G776 ins YVMA mutant in BALB/c mouse implanted with mouse BaF3 cells assessed as reduction in HER2 phosphorylation at 10 to 20 mg/kg, po administered once daily for 13 to 14 days by Western blot analysis; format: functional, organism-based; conditions: dose 10-20 mg/kg, time 13-14 day
[16] = Clearance in Sprague-Dawley rat at 10 mg/kg, iv measured upto 8 hrs by LC-MS/MS analysis; format: ADME, organism-based; conditions: in vivo
[17] = Tmax in Sprague-Dawley rat at 10 mg/kg, iv measured upto 8 hrs by LC-MS/MS analysis; format: ADME, organism-based; conditions: in vivo
[18] = biological target: T2, Tyrosine-protein kinase Tec (Homo sapiens) (UniProt P42680); test: Inhibition of TEC (unknown origin) at 500 nM relative to control
T2 sequence (whole entry): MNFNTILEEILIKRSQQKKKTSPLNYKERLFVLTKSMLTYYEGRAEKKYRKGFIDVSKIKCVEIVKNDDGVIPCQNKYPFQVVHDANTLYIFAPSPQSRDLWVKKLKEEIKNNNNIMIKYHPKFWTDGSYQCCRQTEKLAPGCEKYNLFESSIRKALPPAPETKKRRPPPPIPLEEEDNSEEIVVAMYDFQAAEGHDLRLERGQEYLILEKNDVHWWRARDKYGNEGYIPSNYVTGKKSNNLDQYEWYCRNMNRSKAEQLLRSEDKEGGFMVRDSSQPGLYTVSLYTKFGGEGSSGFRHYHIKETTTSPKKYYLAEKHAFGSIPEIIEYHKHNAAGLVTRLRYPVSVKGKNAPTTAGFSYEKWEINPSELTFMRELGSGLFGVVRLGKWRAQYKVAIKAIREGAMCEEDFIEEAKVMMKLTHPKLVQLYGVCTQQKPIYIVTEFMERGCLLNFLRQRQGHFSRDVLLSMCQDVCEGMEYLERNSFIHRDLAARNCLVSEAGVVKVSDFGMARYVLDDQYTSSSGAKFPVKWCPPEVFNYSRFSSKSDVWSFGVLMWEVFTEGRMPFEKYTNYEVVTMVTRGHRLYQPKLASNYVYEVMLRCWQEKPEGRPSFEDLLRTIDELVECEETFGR

[19] = biological target: Protein-tyrosine kinase 6 (Homo sapiens) (UniProt Q13882); test: Inhibition of BRK (unknown origin) at 500 nM relative to control
Protein-tyrosine kinase 6 (Homo sapiens), sequence (Q13882 whole entry, looked up): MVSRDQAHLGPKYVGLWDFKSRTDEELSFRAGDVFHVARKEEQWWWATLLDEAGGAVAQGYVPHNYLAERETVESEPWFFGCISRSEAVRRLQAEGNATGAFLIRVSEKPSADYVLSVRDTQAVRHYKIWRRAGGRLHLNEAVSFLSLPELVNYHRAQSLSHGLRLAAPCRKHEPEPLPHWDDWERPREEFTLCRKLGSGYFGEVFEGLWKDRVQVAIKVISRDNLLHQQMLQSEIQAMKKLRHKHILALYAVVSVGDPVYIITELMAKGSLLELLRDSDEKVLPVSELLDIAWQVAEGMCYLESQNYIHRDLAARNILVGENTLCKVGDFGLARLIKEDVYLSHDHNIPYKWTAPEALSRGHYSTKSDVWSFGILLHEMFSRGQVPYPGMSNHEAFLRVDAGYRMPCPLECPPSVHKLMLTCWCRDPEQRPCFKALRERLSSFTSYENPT

[20] = system: BaF3; test: Inhibition of EGFR D770-N771 ins NPG mutant in mouse BaF3 cells assessed as reduction in EGFR phosphorylation incubated for 24 hrs by Western blot analysis; format: cell-based; conditions: dose 1-100 nM
[21] = system: BaF3; test: Inhibition of HER2-A775-G776 ins YVMA mutant in mouse BaF3 cells assessed as reduction in HER2 phosphorylation incubated for 24 hrs by Western blot analysis; format: cell-based; conditions: dose 1-100 nM
[22] = Half life in Sprague-Dawley rat at 10 mg/kg, iv measured upto 8 hrs by LC-MS/MS analysis; format: ADME, organism-based; conditions: in vivo
[23] = Toxicity in BALB/c mouse harboring EGFR D770-N771 ins NPG mutant implanted with mouse BaF3 cells assessed as change in body weight at 10 to 20 mg/kg, po administered once daily for 13 to 14 days; format: organism-based; conditions: in vivo, dose lower 10 mg/kg, time lower 13 day, dose upper 20 mg/kg, time upper 14 day
[24] = AUC(0 to t) in Sprague-Dawley rat at 10 mg/kg, iv measured upto 8 hrs by LC-MS/MS analysis; format: ADME, organism-based; design: dose 10 mg/kg, time < 8 hrs, route iv; conditions: in vivo

Tyrosine-protein kinase Blk (Homo sapiens), sequence (P51451 2-505 limits assumed): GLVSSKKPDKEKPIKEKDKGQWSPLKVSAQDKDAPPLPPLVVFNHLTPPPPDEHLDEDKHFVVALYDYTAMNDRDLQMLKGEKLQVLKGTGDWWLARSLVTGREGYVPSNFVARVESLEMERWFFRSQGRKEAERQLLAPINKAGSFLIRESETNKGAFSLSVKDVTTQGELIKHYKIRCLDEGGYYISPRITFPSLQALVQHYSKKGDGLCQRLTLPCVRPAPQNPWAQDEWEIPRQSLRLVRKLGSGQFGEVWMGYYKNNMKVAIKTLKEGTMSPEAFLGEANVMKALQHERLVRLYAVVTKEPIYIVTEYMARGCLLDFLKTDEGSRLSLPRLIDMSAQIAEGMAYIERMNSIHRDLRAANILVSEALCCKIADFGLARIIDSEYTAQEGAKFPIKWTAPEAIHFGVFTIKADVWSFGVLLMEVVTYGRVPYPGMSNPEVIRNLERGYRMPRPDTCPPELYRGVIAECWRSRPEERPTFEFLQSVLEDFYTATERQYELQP

With `C=CC(=O)N1CCC(Oc2cc3c(Nc4cccc(Cl)c4F)ncnc3cc2O[C@H]2CCOC2)CC1` the inhibition [1] was > 20%, the inhibition [2] was 100% and the MRT [3] was 3.58 h. For the same compound, the inhibition [4] was “Active”, the IC50 [5] was 0.62 nM and the inhibition in vivo at 10 mg/kg [6] was 75%. For the same compound, the inhibition [7] was > 20%, the inhibition in vivo at 20 mg/kg [8] was 83% and the inhibition [9] was > 20%. It also gave an IC50 [10] of 0.29 nM, a CL/F [11] of 2.96 mL/min and a Tmax [12] of 1.33 h. The Activity [13] was “Non-Toxic”, the inhibition [14] was 100% and the inhibition [15] was “Active”. The clearance [16] was 2.32 mL/min, the Tmax [17] was 4.98 min and the inhibition [18] was > 20%. For the same compound, the inhibition [19] was > 20%, the inhibition [20] was “Dose-Dependent Effect” and the inhibition [21] was “Dose-Dependent Effect”. The half-life [22] was 0.89 h, the Activity [23] was “Non-Toxic” and the AUC(0-t) at 8 h [24] was 13900 ng·h/mL.
